{
  "source": "paper PMC8284931",
  "about": "(Journal of biomolecular screening, 2012)",
  "key": {"[1]": {"test_system": "E. coli cells", "assay": "Toxicity assay", "conditions": "MTS, 50 μg/ml, positive control"}, "[2]": {"assay": "in vitro", "conditions": "E. coli"}, "[3]": {"target": "endogenous GUS in living intact E. coli (DH5α) (Escherichia coli, UniProt P05804)", "sequence (P05804 whole entry)": "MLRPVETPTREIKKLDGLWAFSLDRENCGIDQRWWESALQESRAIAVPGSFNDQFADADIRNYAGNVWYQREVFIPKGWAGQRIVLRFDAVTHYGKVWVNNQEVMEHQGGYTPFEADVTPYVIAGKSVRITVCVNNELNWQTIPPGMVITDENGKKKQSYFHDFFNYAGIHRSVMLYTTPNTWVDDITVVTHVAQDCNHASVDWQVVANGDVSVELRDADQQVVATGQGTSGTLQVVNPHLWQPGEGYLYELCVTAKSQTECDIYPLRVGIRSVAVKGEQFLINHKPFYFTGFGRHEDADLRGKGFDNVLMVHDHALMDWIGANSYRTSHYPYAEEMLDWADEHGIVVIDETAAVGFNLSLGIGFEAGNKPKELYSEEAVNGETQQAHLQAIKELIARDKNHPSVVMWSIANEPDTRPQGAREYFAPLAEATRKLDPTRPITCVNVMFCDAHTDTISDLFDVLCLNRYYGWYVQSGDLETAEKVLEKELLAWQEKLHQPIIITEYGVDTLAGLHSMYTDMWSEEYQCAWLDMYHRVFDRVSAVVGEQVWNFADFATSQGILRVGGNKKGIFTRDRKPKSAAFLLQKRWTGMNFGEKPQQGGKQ", "assay": "E. coli cell-based GUS activity assay", "conditions": "IC50 shift; for fold less potent in cell-based assay compared to E. coli GUS enzyme assay: less potent in cells"}, "[4]": {"test_system": "P-glycoprotein", "conditions": "result in words; cited from earlier work"}, "[5]": {"conditions": "reported, no reference given, cited from earlier work"}, "[6]": {"target": "T1, mammalian GUS purified from Bovine taurus liver (Bos taurus, UniProt A3KMY8)", "T1 sequence (A3KMY8 1-652)": "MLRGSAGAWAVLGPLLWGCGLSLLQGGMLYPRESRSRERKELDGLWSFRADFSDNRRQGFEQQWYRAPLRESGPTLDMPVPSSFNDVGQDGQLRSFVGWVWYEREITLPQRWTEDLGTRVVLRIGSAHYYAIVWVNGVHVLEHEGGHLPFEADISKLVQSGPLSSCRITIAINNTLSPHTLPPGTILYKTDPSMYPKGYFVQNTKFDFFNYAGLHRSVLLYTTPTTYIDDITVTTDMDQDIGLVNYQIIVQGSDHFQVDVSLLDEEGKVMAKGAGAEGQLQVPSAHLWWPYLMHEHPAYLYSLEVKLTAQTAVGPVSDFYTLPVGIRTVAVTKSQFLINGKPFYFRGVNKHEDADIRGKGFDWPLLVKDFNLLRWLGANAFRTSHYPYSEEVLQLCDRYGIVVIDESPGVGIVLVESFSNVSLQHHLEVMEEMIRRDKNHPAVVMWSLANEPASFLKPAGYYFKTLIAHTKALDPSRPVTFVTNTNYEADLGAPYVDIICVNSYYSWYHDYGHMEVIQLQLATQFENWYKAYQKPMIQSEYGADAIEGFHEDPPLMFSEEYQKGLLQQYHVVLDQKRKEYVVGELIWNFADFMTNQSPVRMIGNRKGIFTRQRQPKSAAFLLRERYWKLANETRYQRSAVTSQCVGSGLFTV", "assay": "B. taurus GUS enzyme assay", "assay_type": "biochemical", "conditions": "for activity against purified mammalian GUS: result in words"}, "[7]": {"target": "purified E. coli GUS enzyme (Escherichia coli, UniProt P05804)", "sequence (P05804 whole entry)": "as the sequence (P05804 whole entry) above", "assay": "E. coli GUS enzyme assay", "assay_type": "biochemical"}, "[8]": {"test_system": "MAO (MAO-A, MAO-B or total activity)", "conditions": "read-out: IC50 for MAO; depending on subclass of MAO-A or MAO-B, or total activity; reported, no reference given; cited from earlier work"}},
  "note": "Where a name gives a salt, the structure may show the parent alone. Read-outs that look alike come from different tables or passages of the source.",
  "data": [
    {"smiles": "NC[C@H]1O[C@H](O[C@H]2[C@H](O)[C@@H](O[C@H]3O[C@H](CO)[C@@H](O)[C@H](N)[C@H]3O)[C@H](N)C[C@@H]2N)[C@H](O)[C@@H](O)[C@@H]1O", "note": "[Kanamycin, kanamycin]", "values": [
      {"measurement": "reduction of activity in viability assay", "setting": "[1]", "result": "over 90%"}
    ]},
    {"smiles": "OC(c1cc(C(F)(F)F)nc2c(C(F)(F)F)cccc12)C1CCCCN1", "note": "(stereo not drawn) [Mefloquine, mefloquine hydrochloride]", "values": [
      {"measurement": "viability at 2 h, 10 µM", "setting": "[2]", "result": 100, "unit": "%"},
      {"measurement": "fold less potent in cell-based assay compared to E. coli GUS enzyme assay", "setting": "[3]", "result": "over 4.9 fold"},
      {"measurement": "fold less potent in cell-based assay compared to E. coli GUS enzyme assay", "setting": "[3]; listed as mefloquine", "result": 5, "unit": "fold"}
    ]},
    {"smiles": "Clc1ccc2c(c1)C(N1CCNCC1)=Nc1ccccc1O2", "note": "[Amoxapine, amoxapine]", "values": [
      {"measurement": "inhibition of P-glycoprotein", "setting": "[4]", "result": "potent non-competitive inhibitors"},
      {"measurement": "normal blood levels", "setting": "[5]; converted from μg/ml", "result": "54 to 669", "unit": "nM"},
      {"measurement": "normal blood levels", "setting": "[5]", "result": "0.017 to 0.21", "unit": "µg/mL"}
    ]},
    {"smiles": "O=C(CCNNC(=O)c1ccncc1)NCc1ccccc1", "note": "[Nialamide, nialamide]", "values": [
      {"measurement": "activity against purified mammalian GUS", "setting": "[6]", "result": "no significant activity"},
      {"measurement": "fold more potent in cell-based assay compared to E. coli GUS enzyme assay", "setting": "[3]; more potent in cells", "result": 4, "unit": "fold"}
    ]},
    {"smiles": "CN1CCN(C2=Nc3ccccc3Oc3ccc(Cl)cc32)CC1", "note": "[Loxapine, loxapine]", "values": [
      {"measurement": "loss in potency versus amoxapine", "setting": "[7]; E. coli GUS enzyme assay, methyl group on the piperazine ring", "result": "> 250", "unit": "fold"},
      {"measurement": "inhibition of P-glycoprotein", "setting": "[4]", "result": "potent non-competitive inhibitors"}
    ]},
    {"smiles": "NNCCc1ccccc1", "note": "[Phenelzine, phenelzine]", "values": [
      {"measurement": "inhibition in Prestwick collection screen", "setting": "[7]; single point, 10 μM compound, high throughput GUS enzyme assay, 10 µM", "result": "> 50", "unit": "%"},
      {"measurement": "IC50", "setting": "[8]", "result": "70 to 900", "unit": "nM"}
    ]},
    {"smiles": "Cc1cc(C(=O)NNCc2ccccc2)no1", "note": "[Isocarboxazid, isocarboxazid]", "values": [
      {"measurement": "IC50", "setting": "[6]", "result": "> 100000", "unit": "nM"},
      {"measurement": "activity against purified mammalian GUS", "setting": "[6]", "result": "no significant activity"}
    ]}
  ]
}
